We go through one compound from publication PMC6717735, “Therapeutic Effect of pHLIP-mediated CEACAM6 Gene Silencing in Lung Adenocarcinoma” (Scientific Reports, 2019).

Assay [1] concerns A549 tumours. The experiment in a line: A549 xenograft tumour growth. The format is in vivo, BALB/c nude mice. To be noted: compared with vehicle-treated mice; for reduction in tumour growth: n = 5. The procedure: We first assessed the knockdown efficacy of delivered […]6 in vivo. For in vivo analysis, BALB/c nude mice were subcutaneously injected with 1.2 × 10^7 A549 cells. Two weeks after tumour initiation, […]6 was injected into the mice via the tail vein with saline used as a negative control. To determine the optimal amount of […]6 for injection, two groups of mice (n = 5 mice/group) were injected with different doses (2 mg/kg and 4 mg/kg) twice per week for 3 weeks. Because cisplatin is the backbone of lung cancer treatment, cisplatin-treated mice served as the positive control. […] After 3 weeks of treatment, all mice were sacrificed. Next, we assessed the antitumour effects of concurrent chemotherapy and CEACAM6 targeting. […] According to the in vivo results, a dose of 2 mg/kg […]6 was selected for combination treatment. […] Tumour volume was measured every 2-3 days. […] None of the mice included in the therapeutic experiments experienced overt body weight loss or organ damage over the treatment period (Supplementary Fig. 5a,b). All animal work was performed in accordance with a protocol approved by the Institutional Animal Care and Use Committee of the Korea Research Institute of Bioscience and Biotechnology. A549 cells were subcutaneously injected into the right flanks of 5-week-old BALB/c athymic nude mice (n = 5 mice/group; 1.2 × 10^7 cells/mouse). Tumour growth was determined by measuring the length (L), width (W), and height (H) with callipers and using the formula V = (L × W × H) × 0.5.

The subject of assay [2] is A549 tumours. The experiment in a line: Ki-67 immunostaining of xenograft tumours (proliferation). The note with it: n = 5 tumours/group. Type of assay: in vivo, BALB/c nude mice. How it is done: Mice were killed by carbon dioxide asphyxiation. Staining was performed in formalin-fixed, paraffin-embedded tumour sections (4-μm thickness). Fully automated immunostaining was achieved using a BenchMark XT autostainer (Ventana Medical Systems Inc., Tucson, AZ, USA). The following antibodies were used: monoclonal mouse anti-human CEACAM6 (9A6, 1:4,000; Santa Cruz Biotechnology Inc.), anti-CC3 (1:100, BioCare Medical, Pacheco, CA, USA), and anti-Ki-67 (1:100, VP-K452; Vector Laboratory, Burlington, Canada). The number of positive cells per tumour area was quantified.

SMILES strings stand for the structures.

`N.N.[Cl][Pt][Cl]` [cisplatin]: the “reduction in tumour growth” value is reported as 46.7% with A549 tumours [1] (2 mg/kg intraperitoneally 3 times/week for 3 weeks) and 35.0% in the assay on A549 tumours [1] (2 mg/kg intraperitoneally twice/week for 3 weeks). For the same compound, in the assay with A549 tumours [1] (combination study: pHLIP-siCEACAM6 2 mg/kg via tail vein, cisplatin intraperitoneally, twice per week for 3 weeks, n = 5 mice/group), the “reduction in tumour volume” value was found to be 29.9%. Further, the “cell proliferation in tumours (Ki-67 staining)” value in the assay on A549 tumours [2] (combination study, after 3 weeks of systemic therapy) is given as 18.4%. Moreover, the “proliferation level (Ki-67 staining)” value in the assay with A549 tumours [2] (single-agent study, tumours harvested after 3 weeks) is given as 11.2%.
